Measured values taken from PubChem BioAssay (NCI).
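Five compound concentrations were applied to cells in 96-well plates for 48 hours; endpoints were derived by simple linear interpolation of the resulting dose-response curve. GI50 is the concentration that inhibits growth by half. TGI marks complete inhibition of growth.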

Legend:
Experiment in all cases: inhibition of tumour cell growth, NCI panel, 48 h
[1] = system: SF-539 CNS
[2] = system: MDA-MB-468 breast
[3] = system: SW-620 colon
[4] = system: MCF7 breast
[5] = system: DU-145 prostate
[6] = system: EKVX NSCLC
[7] = system: OVCAR-3 ovarian
[8] = system: NCI-H226 lung
[9] = system: HS 578T breast
[10] = system: NCI-H23 lung
[11] = system: UO-31 renal
[12] = system: SK-MEL-5 melanoma
[13] = system: NCI-H460 lung
[14] = system: RPMI-8226 leukemia
[15] = system: 786-0 renal
[16] = system: K-562 leukemia
[17] = system: SK-MEL-28 melanoma
[18] = system: SF-268 CNS
[19] = system: PC-3 prostate
[20] = system: ACHN renal
[21] = system: U251 CNS
[22] = system: SK-MEL-2 melanoma
[23] = system: SR leukemia
[24] = system: SF-295 CNS
[25] = system: COLO 205 colon
[26] = system: OVCAR-5 ovarian
[27] = system: OVCAR-4 ovarian
[28] = system: SNB-75 CNS
[29] = system: OVCAR-8 ovarian

Q: CN1CCN(c2ccc(C(=O)/C=C/c3cc(C(F)(F)F)ccc3Cl)cc2)CC1 was tested. Which GI50 [1] did it give?
A: 1.92 µM

Q: And the TGI [1]?
A: 4.38 µM

Q: What about the GI50 [2] of the same compound?
A: 1.59 µM

Q: And the TGI [2]?
A: 3.48 µM

Q: What about the GI50 [3] of the same compound?
A: 2.08 µM

Q: And the TGI [3]?
A: 4.02 µM

Q: And the GI50 [4]?
A: 1.42 µM

Q: And the TGI [4]?
A: 2.94 µM

Q: And the GI50 [5]?
A: 5.5 µM

Q: And the TGI [5]?
A: 20.5 µM

Q: And the GI50 [6]?
A: 5.94 µM

Q: What about the TGI [6] of the same compound?
A: 19 µM

Q: And the GI50 [7]?
A: 4.08 µM

Q: What about the TGI [7] of the same compound?
A: 14.4 µM

Q: What about the GI50 [8] of the same compound?
A: 4.55 µM

Q: What about the TGI [8] of the same compound?
A: 18.6 µM

Q: And the GI50 [9]?
A: 5.48 µM

Q: What about the TGI [9] of the same compound?
A: 28.7 µM

Q: What about the GI50 [10] of the same compound?
A: 3.89 µM

Q: What about the TGI [10] of the same compound?
A: 14.2 µM

Q: What about the GI50 [11] of the same compound?
A: 4.09 µM

Q: And the TGI [11]?
A: 16.4 µM

Q: What about the GI50 [12] of the same compound?
A: 3.71 µM

Q: And the TGI [12]?
A: 15 µM

Q: And the GI50 [13]?
A: 8.73 µM

Q: And the TGI [13]?
A: 22.3 µM

Q: And the GI50 [14]?
A: 1.77 µM

Q: What about the TGI [14] of the same compound?
A: 4.68 µM

Q: What about the GI50 [15] of the same compound?
A: 2.22 µM

Q: What about the TGI [15] of the same compound?
A: 5.74 µM

Q: What about the GI50 [16] of the same compound?
A: 2.17 µM

Q: What about the TGI [16] of the same compound?
A: > 100 µM

Q: And the GI50 [17]?
A: 10.5 µM

Q: What about the TGI [17] of the same compound?
A: 22.3 µM

Q: And the GI50 [18]?
A: 14.1 µM

Q: And the TGI [18]?
A: 37.7 µM

Q: And the GI50 [19]?
A: 3.06 µM

Q: What about the TGI [19] of the same compound?
A: 13.2 µM

Q: What about the GI50 [20] of the same compound?
A: 4.92 µM

Q: What about the TGI [20] of the same compound?
A: 16.8 µM

Q: What about the GI50 [21] of the same compound?
A: 2.1 µM

Q: What about the TGI [21] of the same compound?
A: 4.85 µM

Q: And the GI50 [22]?
A: 17 µM

Q: What about the TGI [22] of the same compound?
A: 32 µM

Q: What about the GI50 [23] of the same compound?
A: > 100 µM

Q: What about the TGI [23] of the same compound?
A: > 100 µM

Q: And the GI50 [24]?
A: 6.89 µM

Q: And the TGI [24]?
A: 19.8 µM

Q: And the GI50 [25]?
A: 3.48 µM

Q: And the TGI [25]?
A: 10.7 µM

Q: What about the GI50 [26] of the same compound?
A: 13.9 µM

Q: What about the TGI [26] of the same compound?
A: 26.9 µM

Q: What about the GI50 [27] of the same compound?
A: 10.7 µM

Q: And the TGI [27]?
A: 29 µM

Q: What about the GI50 [28] of the same compound?
A: 2.66 µM

Q: What about the TGI [28] of the same compound?
A: 15.6 µM

Q: What about the GI50 [29] of the same compound?
A: 9.04 µM

Q: What about the TGI [29] of the same compound?
A: 26.2 µM
